This note sets out measurements from patent US20160374944A1, “COMPOSITIONS AND METHODS FOR TREATING AND PREVENTING CANCER BY TARGETING AND INHIBITING CANCER STEM CELLS” (priority 2011, published 2016).

In assay [1] the test system is Gli transcriptional activity in pancreatic CSCs. Put plainly: Gli-responsive GFP/firefly luciferase reporter. In kind it is cell-based, human. The procedure:
(A) Pancreatic CSCs were treated with rottlerin (0-1 μM) for 24 h. The expression of Patched-1, Smo and Gli-2 was measured by qRT-PCR. […] (B) Pancreatic CSCs were transduced with Gli-responsive GFP/firefly luciferase viral particles (pGreen Fire1-Gli with EF1, System Biosciences). After transduction, culture medium was replaced and CSCs were treated with rottlerin (0-2 μM) for 24 h. Gli-responsive reporter activity was measured using a luciferase assay (Promega Corporation).
FIG. 40A and FIG. 40C are graphs and photographs showing the inhibition of components of sonic hedgehog pathway, Gli transcription and nuclear translocation by EGCG. (A) Inhibition of components of sonic hedgehog pathway and Gli transcription. Pancreatic CSCs were treated with EGCG (0-60 μM) for 36 h. The expression of Smothened (Smo), patched 1 (PTCH1), patched 2 (PTCH2), was measured by q-RT-PCR. […] (B) Inhibition of Gli1 and Gli2 expression and Gli transcription. Pancreatic CSCs were treated with EGCG (0-60 μM) for 36 h. The expression of Gli1 and Gli2 was measured by q-RT-PCR. Gli reporter activity. CSCs were transduced with Gli-responsive GFP/firefly luciferase viral particles (pGreen Fire1-Gli with EF1, System Biosciences). After transduction, culture medium was replaced and CSCs were treated with EGCG (0-60 μM) for 24 h. Gli-responsive reporter activity was measured by luciferase assay (Promega Corporation). […] Stained cells were mounted and visualized under a fluorescence microscope. Blue fluorescence of DAPI was changed to red color for a better contrast.
FIG. 42A and FIG. 42B show graphs showing quercetin synergizes with EGCG to inhibit self-renewal capacity, invasion, migration, and TCF/LEF and Gli transcriptional activities in pancreatic CSCs. […] Cell viability was measured by trypan blue assay. […] At the end of incubation period, colonies were counted. […] Cells invaded to the lower chambered were fixed with methanol, stained with crystal violet and counted. […] Cells migrated to the lower chambered were fixed with methanol, stained with crystal violet and counted. […] Apoptosis was measured by TUNEL assay. […]

For assay [2], the system named is Pancreatic CSCs. Put plainly: Transwell migration assay. The note with it: for migration: EGCG 0-60 μM with or without quercetin 20 μM, 48 hrs. In kind it is cell-based, human. The procedure: (A) Pancreatic CSCs were treated with EGCG (0-60 μM) for 48 h. At the end of incubation period, the expression of Snail, ZEB1 and Slug was measured by q-RT-PCR. […] (B) Transwell migration assay. Pancreatic CSCs were plated in the top chamber of the transwell and treated with EGCG (0-60 μM) for 24 h. Cells migrated to the lower chambered were fixed with methanol, stained with crystal violet and counted. […] (C) Matrigel invasion assay. CSCs were plated onto the Matrigel-coated membrane in the top chamber of the transwell and treated with EGCG (0-60 μM) for 48 h. Cells invaded to the lower chambered were fixed with methanol, stained with crystal violet and counted. […] (D) Effects of EGCG on TCF-1/LEF activity. Pancreatic CSCs were transduced with TCF/LEF responsive GFP/firefly luciferase viral particles (pGreen Fire1-Gli with EF1, System Biosciences). Transduced CSCs were treated with EGCG (0-60) for 48 h and the GFP fluorescence was measured. […] FIG. 42A and FIG. 42B show graphs showing quercetin synergizes with EGCG to inhibit self-renewal capacity, invasion, migration, and TCF/LEF and Gli transcriptional activities in pancreatic CSCs. (A) Effects of EGCG and quercetin on spheroid and colony formation. Upper Panel, uercetin synergizes with EGCG to inhibit spheroid's cell viability. CSCs were seeded in suspension and treated with EGCG (0-60 μM) with or without quercetin (20 μM) for 7 days. At the end of incubation period, all the spheroids were collected and resuspended. Cell viability was measured by trypan blue assay. […] Lower panel, uercetin synergizes with EGCG to inhibit colony formation. […] At the end of incubation period, colonies were counted. […] Cells invaded to the lower chambered were fixed with methanol, stained with crystal violet and counted. […] Cells migrated to the lower chambered were fixed with methanol, stained with crystal violet and counted. […] Apoptosis was measured by TUNEL assay. […] Transduced CSCs were treated with EGCG (40 μM) with or without quercetin (20 μM) for 48 hrs and the luciferase activity was measured.

With `O=C(O[C@@H]1Cc2c(O)cc(O)cc2O[C@@H]1c1cc(O)c(O)c(O)c1)c1cc(O)c(O)c(O)c1` [EGCG, epigallocatechin gallate], the Gli transcriptional activity entry was “inhibited Gli transcriptional activity in a dose-dependent manner” in assay [1] (EGCG 0-60 μM, 24 h, luciferase assay) and “inhibited” in assay [1] (EGCG 40 μM with or without quercetin 20 μM, 48 hrs, luciferase). Further, the migration entry in assay [2] is “inhibited cell viability in spheroids, colony formation, migration and invasion by CSCs in a dose-dependent manner”. In assay [2] (EGCG 0-60 μM, 24 h), the cell migration result is “inhibited”.

Turning to `O=c1c(O)c(-c2ccc(O)c(O)c2)oc2cc(O)cc(O)c12` [quercetin], in assay [2], the migration result is given as “effective alone”.

For the compound `CC(=O)c1c(O)c(C)c(O)c(Cc2c(O)c3c(c(C(=O)/C=C/c4ccccc4)c2O)OC(C)(C)C=C3)c1O` [rottlerin], the Gli transcriptional activity result in assay [1] (rottlerin 0-2 μM, 24 h, luciferase assay) is listed as “inhibited Gli transcriptional activity in a dose-dependent manner”.
